Measured values taken from PubChem BioAssay AID2060890 (Molecular Pharmacology Branch, DTP, NCI, 2025).
Values joined by “and” are separate entries in the source; they are usually repeats but may differ in a detail not shown here. Identical values can stand only once. One block for each compound: values may come before it.

Test system: LG0703-F948-PDC complex spheroid viability
Assay: Anticancer human tumor LG0703-F948-PDC patient-derived lung adenocarcinoma cell line growth inhibition [RAS]
Details: for viability, T/C: stronger effect = lower value
In short: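 Agents were tested in combination matrices in half-log decrements from a top concentration at or near clinical Cmax (10 microM if undetermined). Targets were multi-cell spheroids of tumour lines plus HUVEC and MSC stromal cells.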

[1] = curve of first compound, second compound 0.000949 µM
[2] = curve of first compound, second compound 0.003 µM
[3] = curve of first compound, second compound 0.00949 µM
[4] = curve of first compound, second compound 0.03 µM
[5] = curve of first compound, second compound 0.0949 µM
[6] = curve of first compound, second compound 0.3 µM
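Note: spheroids exposed to agents for 7 days.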
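Throughout, for viability, T/C: 100% = DMSO vehicle wells.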

IC50 [1]: > 0.3 µM
IC50 [2]: > 0.3 µM
IC50 [3]: > 0.3 µM
IC50 [4]: > 0.3 µM
IC50 [5]: > 0.3 µM
IC50 [6]: < 0.000949 µM
Structure (SMILES): CC1(C)CCC(Nc2ncc(C(F)(F)F)c(-c3c[nH]c4c(P(C)(C)=O)c(C#N)ccc34)n2)CN1 (configuration not stated) + CCn1c(-c2cccnc2C(C)OC)c2c3cc(ccc31)N1CCOC(CC(NC(=O)C(C(C)C)N(C)C(=O)C3(F)CCN(C(=O)C#CC(C)(C)N(C)C)CC3)C(=O)N3CCCC(N3)C(=O)OCC(C)(C)C2)C1
viability, T/C (second compound 0.000949 µM, first compound 0.000949 µM): 83.4%
viability, T/C (second compound 0.000949 µM, first compound 0.003 µM): 70.4%
viability, T/C (second compound 0.000949 µM, first compound 0.00949 µM): 67.1%
viability, T/C (second compound 0.000949 µM, first compound 0.03 µM): 60.1%
viability, T/C (second compound 0.000949 µM, first compound 0.0949 µM): 67.3%
viability, T/C (second compound 0.000949 µM, first compound 0.3 µM): 56.5%
viability, T/C (second compound 0.003 µM, first compound 0.000949 µM): 89.2%
viability, T/C (second compound 0.003 µM, first compound 0.003 µM): 84.9%
viability, T/C (second compound 0.003 µM, first compound 0.00949 µM): 58.1%
viability, T/C (second compound 0.003 µM, first compound 0.03 µM): 62.2%
viability, T/C (second compound 0.003 µM, first compound 0.0949 µM): 61.5%
viability, T/C (second compound 0.003 µM, first compound 0.3 µM): 68.7%
viability, T/C (second compound 0.00949 µM, first compound 0.000949 µM): 75%
viability, T/C (second compound 0.00949 µM, first compound 0.003 µM): 72.7%
viability, T/C (second compound 0.00949 µM, first compound 0.00949 µM): 77.8%
viability, T/C (second compound 0.00949 µM, first compound 0.03 µM): 57.7%
viability, T/C (second compound 0.00949 µM, first compound 0.0949 µM): 64.8%
viability, T/C (second compound 0.00949 µM, first compound 0.3 µM): 67.2%
viability, T/C (second compound 0.03 µM, first compound 0.000949 µM): 86.5%
viability, T/C (second compound 0.03 µM, first compound 0.003 µM): 79.5%
viability, T/C (second compound 0.03 µM, first compound 0.00949 µM): 62.6%
viability, T/C (second compound 0.03 µM, first compound 0.03 µM): 66.1%
viability, T/C (second compound 0.03 µM, first compound 0.0949 µM): 59.4%
viability, T/C (second compound 0.03 µM, first compound 0.3 µM): 60.4%
viability, T/C (second compound 0.0949 µM, first compound 0.000949 µM): 82.9%
viability, T/C (second compound 0.0949 µM, first compound 0.003 µM): 68.2%
viability, T/C (second compound 0.0949 µM, first compound 0.00949 µM): 65%
viability, T/C (second compound 0.0949 µM, first compound 0.03 µM): 55%
viability, T/C (second compound 0.0949 µM, first compound 0.0949 µM): 65.7%
viability, T/C (second compound 0.0949 µM, first compound 0.3 µM): 63.7%
viability, T/C (second compound 0.3 µM, first compound 0.000949 µM): 39.1%
viability, T/C (second compound 0.3 µM, first compound 0.003 µM): 49.9%
viability, T/C (second compound 0.3 µM, first compound 0.00949 µM): 48.5%
viability, T/C (second compound 0.3 µM, first compound 0.03 µM): 46.1%
viability, T/C (second compound 0.3 µM, first compound 0.0949 µM): 48.8%
viability, T/C (second compound 0.3 µM, first compound 0.3 µM): 46.2%

IC50 [1]: < 0.0316 µM
IC50 [2]: < 0.0316 µM
IC50 [3]: < 0.0316 µM
IC50 [4]: < 0.0316 µM
IC50 [5]: < 0.0316 µM
IC50 [6]: < 0.0316 µM
Structure (SMILES): CC(=O)OC12COC1CC(O)C1(C)C(=O)C(O)C3=C(C)C(OC(=O)C(O)C(NC(=O)OC(C)(C)C)c4ccccc4)CC(O)(C(OC(=O)c4ccccc4)C21)C3(C)C (configuration not stated) + CCn1c(-c2cccnc2C(C)OC)c2c3cc(ccc31)N1CCOC(CC(NC(=O)C(C(C)C)N(C)C(=O)C3(F)CCN(C(=O)C#CC(C)(C)N(C)C)CC3)C(=O)N3CCCC(N3)C(=O)OCC(C)(C)C2)C1
viability, T/C (second compound 0.000949 µM, first compound 0.0316 µM): 40.1%
viability, T/C (second compound 0.000949 µM, first compound 0.1 µM): 36.8%
viability, T/C (second compound 0.000949 µM, first compound 0.316 µM): 36.3%
viability, T/C (second compound 0.000949 µM, first compound 1 µM): 39.4%
viability, T/C (second compound 0.000949 µM, first compound 3.16 µM): 44.2%
viability, T/C (second compound 0.000949 µM, first compound 10 µM): 41%
viability, T/C (second compound 0.003 µM, first compound 0.0316 µM): 37.7%
viability, T/C (second compound 0.003 µM, first compound 0.1 µM): 35.4%
viability, T/C (second compound 0.003 µM, first compound 0.316 µM): 41.1%
viability, T/C (second compound 0.003 µM, first compound 1 µM): 42.1%
viability, T/C (second compound 0.003 µM, first compound 3.16 µM): 38.7%
viability, T/C (second compound 0.003 µM, first compound 10 µM): 35.6%
viability, T/C (second compound 0.00949 µM, first compound 0.0316 µM): 36.5%
viability, T/C (second compound 0.00949 µM, first compound 0.1 µM): 36.7%
viability, T/C (second compound 0.00949 µM, first compound 0.316 µM): 36.6%
viability, T/C (second compound 0.00949 µM, first compound 1 µM): 40.9%
viability, T/C (second compound 0.00949 µM, first compound 3.16 µM): 49.5%
viability, T/C (second compound 0.00949 µM, first compound 10 µM): 46.9%
viability, T/C (second compound 0.03 µM, first compound 0.0316 µM): 33.5%
viability, T/C (second compound 0.03 µM, first compound 0.1 µM): 35.5%
viability, T/C (second compound 0.03 µM, first compound 0.316 µM): 36.5%
viability, T/C (second compound 0.03 µM, first compound 1 µM): 40.3%
viability, T/C (second compound 0.03 µM, first compound 3.16 µM): 42.5%
viability, T/C (second compound 0.03 µM, first compound 10 µM): 34%
viability, T/C (second compound 0.0949 µM, first compound 0.0316 µM): 39%
viability, T/C (second compound 0.0949 µM, first compound 0.1 µM): 32.7%
viability, T/C (second compound 0.0949 µM, first compound 0.316 µM): 33.4%
viability, T/C (second compound 0.0949 µM, first compound 1 µM): 34%
viability, T/C (second compound 0.0949 µM, first compound 3.16 µM): 35.6%
viability, T/C (second compound 0.0949 µM, first compound 10 µM): 37.1%
viability, T/C (second compound 0.3 µM, first compound 0.0316 µM): 28.5%
viability, T/C (second compound 0.3 µM, first compound 0.1 µM): 22.3%
viability, T/C (second compound 0.3 µM, first compound 0.316 µM): 22.4%
viability, T/C (second compound 0.3 µM, first compound 1 µM): 23.4%
viability, T/C (second compound 0.3 µM, first compound 3.16 µM): 23.7%
viability, T/C (second compound 0.3 µM, first compound 10 µM): 20.9%

IC50 (compound alone, run of 09/09/2024): > 10 µM and 9.29 µM
Structure (SMILES): C#Cc1c(F)ccc2cc(O)cc(-c3ncc4c(N5CC6CCC(C5)N6)nc(OCC56CCCN5CC(F)C6)nc4c3F)c12 (configuration not stated)
viability, T/C (compound 0.1 µM): 98.8% [middle of 8 runs]
viability, T/C (compound 0.316 µM): 85.7% [middle of 8 runs]
viability, T/C (compound 3.16 µM): 61% [middle of 8 runs]
viability, T/C (compound 10 µM): 56.6% [middle of 8 runs]

Structure (SMILES): CCc1c2c(nc3ccc(O)cc13)-c1cc3c(c(=O)n1C2)COC(=O)[C@]3(O)CC
viability, T/C (compound 0.003 µM): 98.3% [middle of 4 runs]
viability, T/C (compound 0.03 µM): 65.8% [middle of 4 runs]
viability, T/C (compound 0.3 µM): 31.6% [middle of 4 runs]
